Experimental data published in patent US5898069A, “Phosphate assay” (Medical Research Council, priority 1993, dated 1999).
“And” between values parts separate entries of the source, which are not always exact repeats. Identical values can stand only once. Like-named read-outs stand apart in the source and are kept apart here.

What was measured:
MDCC-PBP [1] = target: T1, MDCC-PBP (Escherichia coli, UniProt P0AG82, A222C); type: binding, E. coli
T1 construct: A197 is located at position 197 numbering from the N-terminus of the mature PBP; made in house; host or cells: E. coli strain ANCC75, plasmid pSN5182/N, periplasm
Protocol: The Pi dependent fluorescence change was measured for a variety of conditions at a single concentration of Pi (Table 2).
(§1) The solutions contained 2 μM MDCCPBP (except for [b] 10 μM and [c]
The fluorescence change was measured at 465 nm with excitation at
[a] The solution was preincubated with the Pi mop.

CPM-PBP = target: T2, CPM-PBP (Escherichia coli, UniProt P0AG82, A222C); type: binding, E. coli
T2 construct: A197 is located at position 197 numbering from the N-terminus of the mature PBP; made in house; host or cells: E. coli strain ANCC75, plasmid pSN5182/N, periplasm
Protocol: Analysis of the effects of Pi analogues and solution composition was performed as for MDCC-PBP.

[2] = tested on: purine nucleoside phosphorylase; experiment: Phosphorolysis of 7-methyl guanosine by purine nucleoside phosphorylase (Pi mop), absorbance change at 260 nm; type: biochemical, bacterial; conditions: pH 8.0, 20 mM Tris.HCl, 1 μM MgCl2, 30° C.
MDCC-PBP [3] = target: T1, MDCC-PBP; experiment: Titration of arsenate in a solution of MDCC-PBP (fluorescence change); type: binding, E. coli; conditions: read-out: dissociation constant
Source text: (§2) Because very small levels of Pi contamination can affect the observed change on adding Pi and because of variability in the protein activity, the maximum percent increase of fluorescence varies from 400-500%0 Although PBP is very specific for Pi (Luecke & Quiocho, 1990), it was to be used as a probe in the presence of other phosphate species, such as esters or purine nucleotides and so it was important to know at what levels these might interfere with Pi measurements. Several Pi analogues were also tested (Table 2) and only arsenate and vanadate produced significant increases. For a titration of arsenate in a solution of MDCC-PBP, the fluorescence change was used to obtain a dissociation constant of 3 μM. In all cases except arsenate, when subsequently Pi was added, the full fluorescent change was observed. The Pi dependent fluorescence change was measured for a variety of conditions at a single concentration of Pi (Table 2). The change is only slightly affected by pH (7-8) or ionic strength.

PBP mutant D292C = target: T3, PBP mutant D292C (Escherichia coli, UniProt P0AG82, D317C); type: binding, E. coli
T3 construct: from the Nterminus of the mature protein; made in house; host or cells: E. coli strain ANCC75, plasmid pSN5182/N, periplasm
Source text: (e) Using the Pi mop, the fluorescence change was 65%.

[4] = Pi dependent fluorescence change of labelled PBP in various solution compositions; type: binding; conditions: for % fluorescence increase: 100 μM Pi added
Protocol: 3.2 μM MDCC-PBP was in 10 mM PIPES, 1 mM MgCl2 (pH 7.0) at 22° C. Pi was added to 50 μM;
as §2, §1
3.2 μM) in 20 mM PIPES (pH 7.0) except where indicated. The solutions
in B had 100 μM Pi added to produce the indicated fluorescence
change. […]

[5] = Fluorescence titration of Pi to labelled PBP to obtain the dissociation constant; type: binding; conditions: for Kd: approximate
Protocol: The solution at 20° C. contained […] MDCC-PBP, 1 mM MgCl2, 10 mM PIPES pH 7.0. Aliquots of Pi were added and the fluorescence emission was measured at 465 nm with excitation at 425 nm. The data was corrected for the small amount of dilution;
The solution at 25° C. in 10 mM PIPES, pH 7.0, 1 mM MgCl2 contained 0.28 μM MDCC-PBP. Aliquots of Pi were added and the fluorescence emission was measured as in FIG. 3.
The fluorescence titrations of Pi with CPM-PBP (and MDCC-PBP) were fitted to the following equations using Enzfitter software:
Ratio of fluorescence at a given [Pi ] to that at zero Pi =(Q[Ep ]+[E]-[Ep ])/[E] where
[E ]P=([P]+[E]+K-√(([P]+[E]+K)^2 -4[P][E]))/2
[E]=concentration of CPM-PBP
Q=ratio of fluorescence for CPM-PBP.Pi to that for the unliganded CPM-PBP
The product was characterized in several ways. […] The dissociation constant was determined by titrating Pi at low [MDCC-PBP] and measuring fluorescence (FIG. 4). […] Because Pi binding is very tight, these dissociation constants can be considered only approximate: the fluorescence titration could not be done at sufficiently low concentrations to obtain accurate values of Kd.

[6] = Stopped-flow kinetics of Pi binding to labelled PBP and its release
Protocol: A. 0.1 μM MDCC-PBP (mixing chamber concentration) in 10 mM PIPES, pH 7.0 was rapidly mixed at 21° C. with different concentrations of Pi in this buffer in a stopped flow apparatus, while fluorescence emission was monitored using a 455 nm cut-off filter, with excitation at 436 nm using a mercury lamp. The curve show a time course with 0.25 μM Pi. […] The best-fit single exponential (65.3 s^-1) is shown by the dashed line, almost completely hidden by the experimental curve.
B. The release kinetics were measured by rapidly mixing 0.125 μM Pi, 0.25 μM MDCC-PBP with 10 μM wild-type PBP (mixing chamber concentrations) at 22° C. Other conditions were as above The best-fit single exponential (21.4 s^-1) is shown by the dashed line, almost completely hidden by the experimental curve;
In order to use the probe to measure Pi release from ATPases and GTPases in real time it was important to know the kinetics of Pi interaction with the labeled protein. Because of the fast rates only part of the exponential is observed: a significant proportion of the reaction occurs during the dead time of the instrument (i.e. the time taken for the solution to flow between mixing and the observation chamber).
The dissociation rate of the MDCC-PBP.Pi complex was measured directly in the stopped flow apparatus by rapid mixing of this complex with excess wild-type PBP. Pi is released from the fluorescent complex and binds to the wild-type protein with a rate constant limited by the rate of release (FIG. 6B). The observed rate was 21.3±0.1 (S.E.M.) s^-1 (22° C., […], pH 7.0) for wild-type concentrations from 1.25 to 10 μM, with 0.25 μM MDCC-PBP and 0.125 μM Pi. Because this rate is constant over a range of wild-type concentrations and because the rate is much slower than that expected for Pi binding, assuming the wild-type PBP has similar rate constant to the MDCC-PBP, the observed rate constant probably represents Pi release.

[7] = Storage stability of labelled protein; type: physicochemical
Source text: The Pi -sensitive labeled mutant, MDCC-PBP was purified further and tested as described in the Experimental Procedures to show it was a singly-labeled protein with no unlabeled protein or unbound fluorophore. The further purification is important as the unlabeled protein will also bind Pi. Unbound fluorophore would reduce the percentage fluorescence change by increasing the background and it might also slowly react with or bind to other components in the experimental system. The ion exchange chromatography separated MDCC-PBP completely from unlabeled PBP and unbound fluorophore. Thus the final labeled protein has a ratio of absorbance maxima, 280/430 nm of 1.8. The fluorescence excitation maximum is 425 nm and the emission maximum is 474 nm and the fluorescence change with excess Pi at pH 7.0 for the conditions in FIG. 2 is 5.3-fold with a shift of maximum emission to 464 nm. The labeled protein could be stored at […] and was stable on ice for at least 5 days.

[8] = Competition titration of MDCC-PBP.Pi with wild-type PBP; type: binding
[9] = addition 100 μM, 6 μM CPM-PBP, 10 mM Tris.HCl pH 8.0
[10] = addition 1 mM, 6 μM CPM-PBP, 10 mM Tris.HCl pH 8.0
[11] = addition 100 μM, preincubated with the Pi mop, 2 μM MDCC-PBP, 20 mM PIPES pH 7.0
[12] = addition 100 μM, 2 μM MDCC-PBP, 20 mM PIPES pH 7.0

T1 sequence (P0AG82 26-346 A222C): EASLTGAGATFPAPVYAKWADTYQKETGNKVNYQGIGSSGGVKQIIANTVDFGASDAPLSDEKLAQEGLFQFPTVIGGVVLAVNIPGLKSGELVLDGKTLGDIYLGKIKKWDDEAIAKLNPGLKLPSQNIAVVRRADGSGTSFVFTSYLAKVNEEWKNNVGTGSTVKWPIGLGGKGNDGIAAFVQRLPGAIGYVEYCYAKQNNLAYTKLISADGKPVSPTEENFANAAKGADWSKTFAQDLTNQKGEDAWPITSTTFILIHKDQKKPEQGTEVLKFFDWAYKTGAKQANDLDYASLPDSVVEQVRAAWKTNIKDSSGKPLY
T2 sequence (P0AG82 26-346 A222C): as above
T3 sequence (P0AG82 26-346 D317C): as the sequence (P0AG82 26-346 A222C) above, with C197A, D292C counted along it

Molecule: Nc1ncnc2c1ncn2[C@@H]1O[C@H](COP(=O)(O)OP(=O)(O)OP(=O)(O)O)[C@@H](O)[C@H]1O [ATP]
- % fluorescence increase (MDCC-PBP [1]; addition 100 μM, preincubated with the Pi mop, 10 μM MDCC-PBP, 20 mM PIPES pH 7.0): 2%
- % fluorescence increase (MDCC-PBP [1]; addition 1 mM, preincubated with the Pi mop, 10 μM MDCC-PBP, 20 mM PIPES pH 7.0): 11%
- % fluorescence increase (CPM-PBP; [9]): 5%
- % fluorescence increase (CPM-PBP; [10]): 13%

Molecule: CC(OP(=O)(O)OP(=O)(O)OP(=O)(O)OC[C@H]1O[C@@H](n2cnc3c(N)ncnc32)[C@H](O)[C@@H]1O)c1ccccc1[N+](=O)[O-] (stereo partly shown) [NPE-caged ATP, P^31-(2-nitrophenyl)ethyl ATP]
- % fluorescence increase (MDCC-PBP [1]; addition 5 mM, preincubated with the Pi mop, 10 μM MDCC-PBP, 20 mM PIPES pH 7.0): 0%

Molecule: O=P(O)(O)OC[C@H]1OC(O)[C@H](O)[C@@H](O)[C@@H]1O (stereo partly shown) [Glucose-6-phosphate]
- % fluorescence increase (MDCC-PBP [1]; [11]): 3%
- % fluorescence increase (CPM-PBP; [9]): 4%

Molecule: Nc1nc2c(ncn2[C@@H]2O[C@H](COP(=O)(O)OP(=O)(O)O)[C@@H](O)[C@H]2O)c(=O)[nH]1 [GDP]
- % fluorescence increase (MDCC-PBP [1]; [11]): 3%
- % fluorescence increase (CPM-PBP; [9]): 5%

Molecule: O=P(O)(O)OP(=O)(O)O [Pyrophosphate]
- % fluorescence increase (MDCC-PBP [1]; pH 7): 6%
- % fluorescence increase (CPM-PBP; pH 8): 5%

Molecule: O=S(=O)([O-])[O-].[Na+].[Na+] [Sodium sulphate]
- % fluorescence increase (MDCC-PBP [1]; addition 1 mM, 2 μM MDCC-PBP, 20 mM PIPES pH 7.0): 3%
- % fluorescence increase (CPM-PBP; [10]): 0%

Molecule: O=P(O)(O)O [Pi, inorganic phosphate]
- % fluorescence increase (MDCC-PBP [1]; pH 7): 430%
- % fluorescence increase (CPM-PBP; pH 8): 65%
- Km [2]: 34 µM

Molecule: Nc1ncnc2c1ncn2[C@@H]1O[C@H](COP(=O)(O)OP(=O)(O)O)[C@@H](O)[C@H]1O [ADP]
- % fluorescence increase (MDCC-PBP [1]; [11]): 3%
- % fluorescence increase (CPM-PBP; [9]): 4%

Molecule: Sodium vanadate
- % fluorescence increase (MDCC-PBP [1]; [12]): 35%
- % fluorescence increase (CPM-PBP; [9]): -2%
- % fluorescence increase (CPM-PBP; addition 1.1 mM, 6 μM CPM-PBP, 10 mM Tris.HCl pH 8.0): -11%

Molecule: O=[As]([O-])([O-])O.[Na+].[Na+] [Sodium arsenate]
- % fluorescence increase (MDCC-PBP [1]; [12]): 313%
- Kd (MDCC-PBP [3]): 3000 nM
- % fluorescence increase (CPM-PBP; [9]): 25%

Molecule: O=C1C=CC(=O)N1c1ccc(Nc2ccc3cc(S(=O)(=O)O)ccc3c2)cc1 [MIANS, 2[4(1-maleimidyl)anilino]naphthalene6-sulfonic acid]
- fluorescence change using the Pi mop (PBP mutant D292C): 65%

B1: MDCC-PBP (conjugate, UniProt P0AG82 26-346, looked up)
Phosphate-binding protein PstS: EASLTGAGATFPAPVYAKWADTYQKETGNKVNYQGIGSSGGVKQIIANTVDFGASDAPLSDEKLAQEGLFQFPTVIGGVVLAVNIPGLKSGELVLDGKTLGDIYLGKIKKWDDEAIAKLNPGLKLPSQNIAVVRRADGSGTSFVFTSYLAKVNEEWKNNVGTGSTVKWPIGLGGKGNDGIAAFVQRLPGAIGYVEYAYAKQNNLAYTKLISADGKPVSPTEENFANAAKGADWSKTFAQDLTNQKGEDAWPITSTTFILIHKDQKKPEQGTEVLKFFDWAYKTGAKQANDLDYASLPDSVVEQVRAAWKTNIKDSSGKPLY
modifications: MDCC fluorophore label
- % fluorescence increase ([4]; 10 mM PIPES (pH 7.0), 1M NaCl, 3.2 μM MDCC-PBP): 350%
- % fluorescence increase ([4]; 10 mM PIPES (pH 7.0), 2 μM MDCC-PBP): 430%
- % fluorescence increase ([4]; 10 mM Tris-HCl (pH 8.0), 2 μM MDCC-PBP): 405%
- fluorescence change with excess Pi ([4]; pH 7.0, FIG. 2: 3.2 μM MDCC-PBP, 10 mM PIPES, 1 mM MgCl2, 22° C., Pi 50 μM): 5.3 fold
- maximum percent increase of fluorescence ([4]; varies with Pi contamination and protein activity): 400-500%
- protein active (from linear fluorescence response to Pi) ([5]; FIG. 3, 20° C., 1 mM MgCl2, 10 mM PIPES pH 7.0): 75-80%
- maximum fluorescence enhancement ([5]; FIG. 4, 25° C., 10 mM PIPES pH 7.0, 1 mM MgCl2, 0.28 μM MDCC-PBP): 415%
- Kd ([5]; pH7.0): 30 nM
- Kd ([5]; pH 8.0): 80 nM
- Pi binding, best-fit single exponential ([6]; 0.1 μM MDCC-PBP, 0.25 μM Pi, 10 mM PIPES pH 7.0, 21° C.): 65.3 s⁻¹
- dissociation (Pi release) rate of labelled PBP.Pi complex ([6]; 22° C., PIPES pH 7.0, 0.25 μM MDCC-PBP, 0.125 μM Pi mixed with excess wild-type PBP (1.25 to 10 μM)): 21.3 ± 0.1 s⁻¹ and 21.4 s⁻¹
- k+ (Pi binding rate constant, one step binding model) ([6]; pH 7.0, [Pi]<5μM): 1.36e+08 M⁻¹ s⁻¹
- k- (from fit of observed binding rates) ([6]; pH 7.0, [Pi]<5μM, prone to error): 43 s⁻¹
- stable on ice [7]: at least 5 days

B2: wild-type PBP: E. coli phosphate binding protein (PBP), unlabelled wild-type (protein, UniProt P0AG82 26-346, looked up)
Phosphate-binding protein PstS: EASLTGAGATFPAPVYAKWADTYQKETGNKVNYQGIGSSGGVKQIIANTVDFGASDAPLSDEKLAQEGLFQFPTVIGGVVLAVNIPGLKSGELVLDGKTLGDIYLGKIKKWDDEAIAKLNPGLKLPSQNIAVVRRADGSGTSFVFTSYLAKVNEEWKNNVGTGSTVKWPIGLGGKGNDGIAAFVQRLPGAIGYVEYAYAKQNNLAYTKLISADGKPVSPTEENFANAAKGADWSKTFAQDLTNQKGEDAWPITSTTFILIHKDQKKPEQGTEVLKFFDWAYKTGAKQANDLDYASLPDSVVEQVRAAWKTNIKDSSGKPLY
- relative affinity for Pi versus the labeled mutant (MDCC-PBP) [8]: two-fold tighter
